The text below walks through data of publication PMC3510438, “The transmembrane tyrosines Y56, Y91 and Y167 play important roles in determining the affinity and transport rate of the rabbit proton-coupled peptide transporter PepT1” (The International Journal of Biochemistry & Cell Biology, 2009).

Positions count from the first letter of the chain named. Where a SMILES comes first, the peptide text is derived from it. [ ]: non-standard residue; d: D form. Sar = CNCC(=O)O

Assay [1] has as its target T1, Y56F-rPepT1 (Oryctolagus cuniculus, UniProt P36836, Y56F).
T1 construct: expressed in transfected cells; host or cells: Xenopus laevis oocytes injected with cRNA
T1 sequence (P36836 1-707 Y56F): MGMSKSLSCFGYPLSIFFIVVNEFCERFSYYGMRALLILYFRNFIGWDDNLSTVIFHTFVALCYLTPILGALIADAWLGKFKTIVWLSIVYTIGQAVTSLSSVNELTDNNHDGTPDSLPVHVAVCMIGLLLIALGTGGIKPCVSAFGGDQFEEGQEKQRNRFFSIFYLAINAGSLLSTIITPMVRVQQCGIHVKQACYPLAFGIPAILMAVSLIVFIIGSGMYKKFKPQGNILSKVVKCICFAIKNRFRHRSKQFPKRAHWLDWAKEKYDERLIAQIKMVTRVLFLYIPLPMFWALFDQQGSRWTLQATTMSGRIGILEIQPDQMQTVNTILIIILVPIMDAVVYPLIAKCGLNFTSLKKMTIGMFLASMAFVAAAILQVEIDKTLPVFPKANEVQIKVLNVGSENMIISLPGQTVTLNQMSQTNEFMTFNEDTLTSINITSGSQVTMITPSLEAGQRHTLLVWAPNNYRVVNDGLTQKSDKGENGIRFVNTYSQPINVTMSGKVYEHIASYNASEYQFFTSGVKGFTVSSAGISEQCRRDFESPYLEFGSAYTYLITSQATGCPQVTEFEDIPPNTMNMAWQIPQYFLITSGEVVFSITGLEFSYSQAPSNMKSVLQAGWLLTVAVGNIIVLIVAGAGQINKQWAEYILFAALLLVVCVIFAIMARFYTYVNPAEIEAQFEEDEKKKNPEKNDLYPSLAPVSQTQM
Further details: method as in Chen et al. (2000). Particulars: Y56F mutant versus wild-type; ref Chen et al. (2000); cited from earlier work.

A further assay deals with Y56A mutation of PepT1. Also on record: method as in Chen et al. (2000). The conditions noted are these: ref Chen et al. (2000); cited from earlier work.
Assay [2] deals with hPepT1 with mutations of Y167. Also on record: method as in Yeung et al., 1998. The conditions noted are these: transfected HEK293 cells; ref Yeung et al., 1998; cited from earlier work.
The next assay concerns the target T2, wild-type rPepT1 (Oryctolagus cuniculus, UniProt P36836).
T2 construct: expressed in transfected cells; host or cells: Xenopus laevis oocytes injected with cRNA
T2 sequence (P36836 1-707): T1 sequence (P36836 1-707 Y56F) with F56Y
Briefly: Competition of [3H]-D-Phe-L-Gln uptake into Xenopus oocytes, Ki by method of Deves and Boyd. The format is cell-based, rabbit. The conditions noted are these: pHout 5.5; inhibition of 0.4 μM [3H]-D-Phe-L-Gln uptake; n = 4. As to the method:
rPepT1 constructs were linearised with XbaI (New England Biolabs, UK) and cRNA generated by in vitro transcription (T7 mMessage mMachine, Ambion, Cambridgeshire, UK). Xenopus laevis oocytes were obtained under MS222 anaesthesia (0.2%, w/v) in accordance with the UK Animals (Scientific Procedures) Act, 1986, and maintained at 18 °C in modified Barth's medium (88 mM NaCl, 1 mM KCl, 0.82 mM MgSO4, 2.4 mM NaHCO3, 0.42 mM CaCl2, 10 mM Hepes, 5 mM sodium pyruvate, 50 μg ml^−1 gentamicin (Fluka, Poole, UK), adjusted to pH 7.6 with 1 M NaOH). Transport measurements were performed at least 72 h after micro-injection of oocytes with 27nl cRNA (1 μg/μl), with medium changed daily.
Uptake of [^3H]-D-Phe-L-Gln (17.4 Ci/mmole, custom synthesised, Cambridge Research Biochemicals, Stockton-on-Tees, UK) was performed as previously described ([Meredith, 2004]). Briefly, 5 oocytes were incubated in 100 μl of uptake medium (95 mM NaCl, 2 mM KCl, 1 mM CaCl2, 0.42 mM MgCl2, 10 mM Tris/Hepes pH 7.4 or Tris/Mes pH 5.5) with tracer (0.4 μM) [^3H]-D-Phe-L-Gln. After incubation, the oocytes were washed sequentially five times in 1 ml of ice-cold 120 mM NaCl solution, lysed individually with 100 μl 2% (w/v) SDS and liquid scintillation counted. As a control non-injected oocytes were also incubated in uptake medium with D-Phe-L-Gln as above.
The affinity of wild-type and mutant rPepT1 transporters were assessed by competition studies with 0.4 μM [^3H]-D-Phe-L-Gln and Gly-L-Gln present in the uptake medium in concentrations from 0 to 2 mM using the protocol above, and the Ki calculated using the method of [Deves and Boyd (1989)].

The target of assay [3] is T1, Y56F-rPepT1. As to the kind of experiment: Competition of [3H]-D-Phe-L-Gln uptake into Xenopus oocytes, Ki. The assay is classed as cell-based, rabbit. The conditions noted are these: pHout 5.5, n = 4; for Ki: inhibition of 0.4 μM [3H]-D-Phe-L-Gln uptake. The procedure:
rPepT1 constructs were linearised with XbaI (New England Biolabs, UK) and cRNA generated by in vitro transcription (T7 mMessage mMachine, Ambion, Cambridgeshire, UK).
As a control non-injected oocytes were also incubated in uptake medium with D-Phe-L-Gln as above.

As to `CC(C)C[C@H](NC(=O)CN)C(=O)O` [Gly-L-Leu], the reduction of transport entry at Y56F-rPepT1 [1] was “approximately 85%”. Besides, in the assay on Y56A mutation of PepT1, the transport entry was “lost completely”.
In the case of `CN(CC(=O)O)C(=O)CN` [Gly-Sar] (H-Gly-[Sar]-OH), the uptake entry in assay [2] is “no measurable uptake”.
For `NC(=O)[C@H](Cc1ccc(O)cc1)NC(=O)[C@@H](N)Cc1ccccc1` [Phe-Tyr-NH2] (H-Phe-Tyr-NH2), affinity on wild-type rPepT1 was put at a Ki of 6600 ± 1620 µM. Besides, at Y56F-rPepT1 [3], the Ki – broadly, a measure of affinity in units of concentration, obtained from inhibition or displacement – was determined as 72.9 ± 20.5 µM and the “fold change in affinity (Ki), wild-type rPepT1 versus Y56F-rPepT1” value was determined as 64.4 ± 26.0 fold.
For the compound `NC(Cc1ccccc1)C(=O)NC(Cc1ccc(O)cc1)C(=O)O` (stereo not drawn) [Phe-Tyr] (H-Phe-Tyr-OH; configuration not given here), affinity at wild-type rPepT1 was put at a Ki of 200 ± 30 µM. At Y56F-rPepT1 [3], the affinity corresponds to a Ki of 0.86 ± 0.26 µM and the “fold change in affinity (Ki), wild-type rPepT1 versus Y56F-rPepT1” value stood at 336.4 ± 100.6 fold.
